We go through eleven compounds from ChEMBL document CHEMBL5726876, “NHE3-binding compounds and methods for inhibiting phosphate transport” (2019).

pIC50: −log10 of the molar value. Where “and” joins values, the source holds several entries; their conditions need not be identical. Equal values may be shown once.

Assay [1] in a line: Cell-based activity under Prompt Conditions: Cell-based activity under Prompt Conditions. Rat or human NHE3-mediated Na+-dependent H+ antiport was measured using a modification of the pH sensitive dye method originally reported by Paradiso (PNAS USA. 81:7436-7440, 1984). Opossum kidney (OK) cells were obtained from the ATCC and propagated per their instructions. The rat NHE3 gene (GenBank M85300) or the human NHE3 gene (GenBank NM_004174.1) was introduced into OK cells via electroporation, and cells were seeded into 96 well plates and grown overnight. Medium was aspirated from the wells, cells were washed twice with NaCl-HEPES buffer (100 mM NaCl, 50 mM HEPES, 10 mM glucose, 5 mM KCl, 2 mM CaCl2, 1 mM MgCl2, pH 7.4), then incubated for 30 min at room temperature with NH4Cl-HEPES buffer (20 mM NH4Cl, 80 mM NaCl, 50 mM HEPES, 5 mM KCl, 2 mM CaCl2, 1 mM MgCl2, pH 7.4) containing 5 μM bis(acetoxymethyl) 3,3′-(3′,6′-bis(acetoxymethoxy)-5-((acetoxymethoxy)carbonyl)-3-oxo-3H-spiro[isobenzofuran-1,9′-xanthene]-2′,7′-diyl)dipropanoate (BCECF-AM).Cells were washed twice with Ammonium free, Na+-free HEPES (100 mM choline, 50 mM HEPES, 10 mM glucose, 5 mM KCl, 2 mM CaCl2, 1 mM MgCl2, pH 7.4) and incubated in the same buffer for 10 minutes at room temperature to lower intracellular pH. […] Initial rates were plotted as the average 2 or more replicates, and pIC50 values were estimated using GraphPad Prism.

A short description of assay [2]: Cell-Based Assay of NHE3 Activity under Persistent Conditions: The ability of compounds to inhibit Rat NHE3-mediated Na+-dependent H+ antiport after application and washout was measured using a modification of the pH sensitive dye method described above. Opossum kidney (OK) cells were obtained from the ATCC and propagated per their instructions. The rat NHE3 gene was introduced into OK cells via electroporation, and cells were seeded into 96 well plates and grown overnight. Medium was aspirated from the wells, cells were washed twice with NaCl-HEPES buffer (100 mM NaCl, 50 mM HEPES, 10 mM glucose, 5 mM KCl, 2 mM CaCl2, 1 mM MgCl2, pH 7.4), then overlayed with NaCl-HEPES buffer containing 0-30 μM test compound.After a 60 min incubation, the test drug containing buffer was aspirated from the cells, cells were washed twice with NaCl-HEPES buffer without drug, then incubated for 30 min at room temperature with NH4Cl-HEPES buffer (20 mM NH4Cl, 80 mM NaCl, 50 mM HEPES, 5 mM KCl, 2 mM CaCl2, 1 mM MgCl2, pH 7.4) containing 5 uM BCECF-AM. Cells were washed twice with Ammonium free, Natfree HEPES (100 mM choline, 50 mM HEPES, 10 mM glucose, 5 mM KCl, 2 mM CaCl2, 1 mM MgCl2, pH 7.4) and incubated in the same buffer for 10 minutes at room temperature to lower intracellular pH. […] Initial rates were plotted as the average 2 or more replicates, and pIC50 values w.

A short description of assay [3]: Cell-based assay of NaP2b activity: The rate of phosphate (Pi) uptake into cells was measured using a modification of a literature method (see Mohrmann et al. Am. J. Phys. 250(3 pt 1):G323-30, 1986). Briefly, HEK293 cells were transiently transfected with an expression clone encoding either rat or human NaP2b. The next day, transfected cells were treated with a pharmacological agent to minimize endogenous PiT-mediated phosphate transport activity, such that the only remaining sodium-dependent phosphate transport activity is that which was bestowed by introduction of the NaP2b gene. Cells were incubated with radioactive inorganic phosphate in the presence or absence of varying concentrations of test compound. After a short time, cells were washed, harvested, and the amount of hot phosphate taken up in the cells determined by liquid scintillation counting.HEK293 cells were obtained from the American Type Culture collection and propagated per their instructions. Expression clones for rat and human NaP2b (SLC34A2) were obtained from Open Biosystems (Catalog numbers MRN1768-9510282, and MHS1010-99823026, respectively). There are two putative splice variants of human NaP2b, designated as isoform a and isoform b (NCBI Reference Sequences: NP_006415.2 and NP_ 001171470.1, respectively). […] […].

What is called pIC50 is −log10 of the IC50, conventionally taken in molar units. On to `CN1Cc2c(Cl)cc(Cl)cc2[C@@H](c2cccc(S(=O)(=O)NCCOCCOCCNC(=O)NCCCCNC(=O)NCCOCCOCCNS(=O)(=O)c3cccc([C@H]4CN(C)Cc5c(Cl)cc(Cl)cc54)c3)c2)C1`, for which the pIC50 is > 5.00 and 7.30 in assay [1]; 5.60 in assay [2].
Regarding `CN1Cc2c(Cl)cc(Cl)cc2[C@H](c2cccc(S(=O)(=O)NCCOCCOCCN(C)C(=O)CCC(CCC(=O)N(C)CCOCCOCCNS(=O)(=O)c3cccc([C@@H]4CN(C)Cc5c(Cl)cc(Cl)cc54)c3)(CCC(=O)N(C)CCOCCOCCNS(=O)(=O)c3cccc([C@@H]4CN(C)Cc5c(Cl)cc(Cl)cc54)c3)NC(=O)COCC(=O)O)c2)C1`, the pIC50 in assay [1] was 7.70.
Still for that read-out and setting: the result for `CN(C)[C@H]1Cc2c(Cl)cc(Cl)cc2[C@@H]1Oc1ccc(S(=O)(=O)NCCOCCOCCNC(=O)CCC(C)(N)CCC(=O)NCCOCCOCCNS(=O)(=O)c2ccc(O[C@H]3c4cc(Cl)cc(Cl)c4C[C@@H]3N(C)C)cc2)cc1` reads 8.60.
In the case of `CN1Cc2c(Cl)cc(Cl)cc2[C@H](c2cccc(S(=O)(=O)NCCOCCOCCN(C)C(=O)CCC(N)(CCC(=O)N(C)CCOCCOCCNS(=O)(=O)c3cccc([C@@H]4CN(C)Cc5c(Cl)cc(Cl)cc54)c3)CCC(=O)N(C)CCOCCOCCNS(=O)(=O)c3cccc([C@@H]4CN(C)Cc5c(Cl)cc(Cl)cc54)c3)c2)C1`, the pIC50 in assay [1] is 7.80.
On the same count and under the same terms, to `CN1Cc2c(Cl)cc(Cl)cc2[C@H](c2cccc(S(=O)(=O)NCCOCCOCCNC(=O)CCC(CCC(=O)NCCOCCOCCNS(=O)(=O)c3cccc([C@@H]4CN(C)Cc5c(Cl)cc(Cl)cc54)c3)(CCC(=O)NCCOCCOCCNS(=O)(=O)c3cccc([C@@H]4CN(C)Cc5c(Cl)cc(Cl)cc54)c3)NC(=O)NC(CO)CO)c2)C1` belongs 7.10.
The same measure, in the same setting: the result for `CN(C)CC(=O)NC(CCC(=O)N(C)CCOCCOCCNS(=O)(=O)c1cccc([C@@H]2CN(C)Cc3c(Cl)cc(Cl)cc32)c1)(CCC(=O)N(C)CCOCCOCCNS(=O)(=O)c1cccc([C@@H]2CN(C)Cc3c(Cl)cc(Cl)cc32)c1)CCC(=O)N(C)CCOCCOCCNS(=O)(=O)c1cccc([C@@H]2CN(C)Cc3c(Cl)cc(Cl)cc32)c1` reads 7.50.
Same read-out and setting: the result for `CN(C)[C@H]1Cc2c(Cl)cc(Cl)cc2[C@@H]1Oc1ccc(S(=O)(=O)NCCOCCOCCNC(=O)CCC(C)(CCC(=O)NCCOCCOCCNS(=O)(=O)c2ccc(O[C@H]3c4cc(Cl)cc(Cl)c4C[C@@H]3N(C)C)cc2)NC(=O)CCC(=O)O)cc1` reads 8.00; that for `CC(O)C(CCC(=O)NCCOCCOCCNS(=O)(=O)c1cccc([C@@H]2CN(C)Cc3c(Cl)cc(Cl)cc32)c1)(CCC(=O)NCCOCCOCCNS(=O)(=O)c1cccc([C@@H]2CN(C)Cc3c(Cl)cc(Cl)cc32)c1)CCC(=O)NCCOCCOCCNS(=O)(=O)c1cccc([C@@H]2CN(C)Cc3c(Cl)cc(Cl)cc32)c1` (some centres undefined), 7.60; that for `CN1Cc2c(Cl)cc(Cl)cc2[C@H](c2cccc(S(=O)(=O)NCCOCCOCCNC(=O)Nc3ccc(NC(=O)NCCOCCOCCNS(=O)(=O)c4cccc([C@@H]5CN(C)Cc6c(Cl)cc(Cl)cc65)c4)cc3)c2)C1`, 8.60.
For `CN1Cc2c(Cl)cc(Cl)cc2[C@H](c2cccc(NC(=O)[C@H](O)[C@@H](O)[C@H](O)[C@H](O)CO)c2)C1`, the pIC50 in assay [1] is 7.60.
In the case of `CN1Cc2c(Cl)cc(Cl)cc2[C@H](c2cccc(S(=O)(=O)NCCOCCOCCNC(=O)NCCCCNC(=O)NCCOCCOCCNS(=O)(=O)c3cccc([C@@H]4CN(C)Cc5c(Cl)cc(Cl)cc54)c3)c2)C1` [TENAPANOR], the pIC50 was 8.03 and 8.00 in assay [1]; 8.40 in assay [2]; over 4.50 in assay [3].
